Test results: patent US12116424B2, “Compounds and compositions for modulating Listeria virulence” (priority 2021, dated 2024)
Read-outs that look alike come from different tables or passages of the source. Where a SMILES comes first, the peptide text is derived from it. Bridges are numbered along the chain shown (N, C = ends). [ ]: non-standard residue; d: D form.

Columns and labels:
L. monocytogenes AgrC [1] = molecular target: T1, L. monocytogenes AgrC (Listeria monocytogenes serovar 1/2a, UniProt Q8YAR5); assay: Fluorescence (agr-GFP) reporter agonism assay, ΔagrD reporter strain; type: cell-based; parameters: Emax: dose or concentration left out as unconfirmed; conditions: for agonism activity (in words): ΔagrD reporter
In short: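 L. monocytogenes EGD-e strains carrying agr promoter-GFP plasmid: ΔagrD for agonism (normalized to 1 μM AIP), wild type for antagonism (normalized to DMSO). Peptides in 1% DMSO with diluted overnight culture in BHI, 24 h at 37 °C shaking; GFP fluorescence corrected for background and OD600, four-parameter dose-response fit.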

[2] = system: L. monocytogenes EGD-e ΔagrD; assay: Crystal violet biofilm assay, ΔagrD strain (agonists); type: cell-based, Listeria monocytogenes; conditions: for biofilm production compared to vehicle controls: 10 μM, ΔagrD bacteria
Protocol: (§1) Biofilm assay protocol. Biofilms assays were adapted from previous reports and protocols.^51-52 Overnight cultures of L. monocytogenes EGD-e and ΔagrD were grown in BHI, then diluted 1:100 in LB. For single-point assays, 2 μL of agonists or antagonists at an appropriate concentration were added to wells in a clear 96-well microtiter plates. For dose-response assays, a stock solution of the select peptide were serially diluted in DMSO, then 2 μL of each concentration were transferred to the appropriate wells. Then, 198 μL of bacteria were added to their respective wells, using ΔagrD for agonist wells and EGD-e for antagonist wells. In each plate, additional vehicle controls for baseline biofilm formation of EGD-e and ΔagrD strains (2 μL of DMSO) were included, as well as a media control (200 μL of LB). Plates were incubated at room temperature for 24 hours statically, at which point plates were inverted over a glass waste container and gently shook to remove planktonic bacteria. The wells were gently washed with 200 μL of PBS twice, inverting again over the waste container to remove liquid. Then, 200 μL of 0.1% crystal violet solution (in water) were added to each well and incubated for 30 minutes. The wells were then washed with 200 μL of PBS three more times and left to air dry for 15 minutes. Remaining crystal violet was solubilized by the addition of 100 μL of 95% ethanol in water solution, pipetting up and down to mix, incubated for 10 minutes, then absorbance was read at 595 nm. Absorbance data was processed by normalizing to the EGD-e vehicle control (100%) and the LB media control (0%). Non-linear regression curves were fitted to the data sets in GraphPad Prism 7 by using variable slope (four-parameter) dose-response analysis to obtain potency, efficacy, and statistical information about the activity of tested peptides. Each well was tested with four technical replicates and three biological replicates. All data derived from crystal violet biofilm assays are represented with data points signifying the mean and error bars signifying the standard deviation from all replicates.

L. monocytogenes AgrC [3] = molecular target: T1, L. monocytogenes AgrC; assay: Fluorescence (agr-GFP) reporter antagonism assay, wild-type EGD-e reporter strain; type: cell-based
Excerpt: Construction of Listeria agr Reporter Strains. A gene block was designed and purchased from Integrated DNA Technologies to contain an EagI recognition site, the PII promoter of the agr system, the 3′ UTR of hly, super folder GFP, and a SaII recognition site. The gene block was digested with EagI and SaII, cloned into an EagI/SaII-cut pAM401 plasmid resulting in the plasmid pAM401-KW1, and then transformed into E. coli XL1-Blue competent cells. The insertion into pAM401 was confirmed using Kapa polymerase and primers DAP337 and DAP338, and additional confirmation via commercial sequencing. Purified plasmid was transformed into the conjugative E. coli S17 strain, which was used to conjugate to EGD-e and EGD-e ΔagrD to generate the agr-GFP reporter strains EGD-e:pAM401-KW1 and EGD-e ΔagrD:pAM401-KW1. Conjugation was verified using primers DAP337 and DAP338.
Fluorescence reporter assay protocol. For QS (agr) reporter assays, peptide stock solutions in DMSO (1 mM) were serially diluted in DMSO, and 2 μL of solution was added to each well in a black 96-well plate (polystyrene microtiter plate, Costar). Agonism assays utilized the ΔagrD reporter strain, with 2 μL of 100 μM AIP (final concentration 1 μM) as a positive control and 2 μL of DMSO as a negative control. Antagonism assays utilized the EGD-e reporter strain, with 2 μL of DMSO as a positive control. In both assays, wells containing only BHI media served as negative controls for normalization. An overnight culture of bacteria was diluted 1:50 in fresh BHI, then 198 μL were transferred to each well (excluding the media control wells). Plates were then incubated at 37° C. for 24 hours with shaking at 200 rpm. Fluorescence of GFP (excitation at 500 nm, emission at 540 nm) and OD600 of each well was measured using BioTek Synergy 2 plate reader. Measurements were processed by subtracting background fluorescence (BHI media), correcting by OD600, and the normalizing using the 1 μM AIP or the DMSO control for the agonism and antagonism assays, respectively. Non-linear regression curves were fitted to the data sets in GraphPad Prism 7 by using variable slope (four-parameter) dose-response analysis to obtain potency, efficacy, and statistical information about the activity of tested peptides. Each peptide was tested with three technical replicates and three biological replicates. All data derived from fluorescent reporter strains are represented with data points signifying the mean and error bars signifying the standard deviation from all replicates.
Preparation and Validation of Listeria agr Reporter Strains. […] However, adding exogenous AIP to the ΔagrD reporter results in an increase of fluorescence, indicating agr activity has been restored.

L. monocytogenes EGD-e = type: cell-based, Listeria monocytogenes
Protocol: as §1, with “All data derived from crystal violet biofilm assays are represented with data points signifying the mean and error bars signifying the standard deviation from all replicates.” left out

[4] = read-out: Max Activation Observed

T1 sequence (Q8YAR5 entry or part of it): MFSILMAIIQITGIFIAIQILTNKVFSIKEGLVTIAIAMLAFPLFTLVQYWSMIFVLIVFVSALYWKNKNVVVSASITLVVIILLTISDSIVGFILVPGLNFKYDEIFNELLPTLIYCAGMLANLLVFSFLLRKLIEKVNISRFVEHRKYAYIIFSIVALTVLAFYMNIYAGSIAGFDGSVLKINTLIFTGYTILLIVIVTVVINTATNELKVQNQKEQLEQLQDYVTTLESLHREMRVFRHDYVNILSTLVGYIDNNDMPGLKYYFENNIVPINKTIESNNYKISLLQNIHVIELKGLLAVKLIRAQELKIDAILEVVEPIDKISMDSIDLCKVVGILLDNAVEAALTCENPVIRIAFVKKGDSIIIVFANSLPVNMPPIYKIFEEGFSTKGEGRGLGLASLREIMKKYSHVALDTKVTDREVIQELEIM

Row | Molecule | Emax (L. monocytogenes AgrC [1]; read-out: Max Activation) | Emax (L. monocytogenes AgrC [1]; [4]) | agonism activity (in words) (L. monocytogenes AgrC [1]) | antagonism activity (in words) (L. monocytogenes AgrC [3]) | also measured
1 | CSCC[C@@H]1NC(=O)[C@H](Cc2ccccc2)NC(=O)[C@@H](NC(=O)[C@H](C)N)CSC(=O)[C@H](C(C)C)NC(=O)[C@H](Cc2ccccc2)NC1=O [AIP, A-(C-F-M-F-V), reference compound] (H-ACFMFV; thioester 2-C; N-terminus assumed) | 114% | 114% |  |  | Emax at 1 µM (L. monocytogenes AgrC [1]; read-out: Max Activation): 114%; biofilm formation of ΔagrD strain (FIG. 9A) [2]: increase biofilm formation; biofilm production compared to vehicle controls [2]: doubled
2 | CSCC[C@@H]1NC(=O)[C@H](C)NC(=O)[C@@H](NC(=O)[C@H](C)N)CSC(=O)[C@H](C(C)C)NC(=O)[C@H](Cc2ccccc2)NC1=O [AIP F3A, A-(C-A-M-F-V)] (H-ACAMFV; thioester 2-C; N-terminus assumed) |  | 9.72% | abolished agonism activity | no noticeable antagonism | 
3 | CSCC[C@H]1NC(=O)[C@H](Cc2ccccc2)NC(=O)[C@H](NC(=O)[C@@H](N)CCCCN)CSC(=O)[C@H](C(C)C)NC(=O)[C@H](Cc2ccccc2)NC1=O [A1K/C2dC/M4dM, K-(dC-F-dM-F-V)] (H-K[dC]F[dM]FV; thioester 2-C) |  | 8.1% |  | inhibiting wild-type activity to levels similar to basal ΔagrD activity | biofilm of wild-type (WT) strain (FIG. 9B) (L. monocytogenes EGD-e): reduces biofilm; wild-type biofilm formation reduced by (L. monocytogenes EGD-e; 100 μM): 90%; IC50 (L. monocytogenes EGD-e; dose-response, wild-type biofilm, read-out: IC50 (biofilm formation)): 1860 nM
4 | CSCC[C@@H]1NC(=O)[C@@H](Cc2ccccc2)NC(=O)[C@@H](NC(=O)[C@H](C)N)CSC(=O)[C@H](C(C)C)NC(=O)[C@H](Cc2ccccc2)NC1=O [AIP F3dF, A-(C-dF-M-F-V)] (H-AC[dF]MFV; thioester 2-C; N-terminus assumed) |  | 6.63% | largely inactive | largely inactive | 
5 | A-(C-F-M-A-V) [AIP F5A] |  |  | abolished agonism activity | no noticeable antagonism | Max Activation Observed (L. monocytogenes AgrC [1]; Table 6, normalized with 1 μM AIP (100%) and media (0%) in ΔagrD reporter): 6.37%
6 | CSCC[C@H](NC(=O)[C@H](CO)NC(=O)[C@H](CO)NC(=O)[C@H](CC(=O)O)NC(=O)[C@H](C)NC(=O)[C@@H](NC(=O)[C@@H](N)CCCCN)C(C)C)C(=O)N[C@@H](CO)C(=O)N[C@@H](CCCCN)C(=O)N[C@@H](C)C(=O)N[C@H]1CSC(=O)[C@H](C(C)C)NC(=O)[C@H](Cc2ccccc2)NC(=O)[C@H](CCSC)NC(=O)[C@H](Cc2ccccc2)NC1=O [Compound 15-mer, K-V-A-D-S-S-M-S-K-A-(C-F-M-F-V)] (H-KVADSSMSKACFMFV; thioester 11-C; N-terminus assumed) | 122% |  |  |  | 
7 | CSCC[C@H]1NC(=O)[C@H](Cc2ccccc2)NC(=O)[C@@H](NC(=O)[C@@H](N)CCCCN)CSC(=O)[C@H](C(C)C)NC(=O)[C@H](Cc2ccccc2)NC1=O [AIP A1K/M4dM, K-(C-F-dM-F-V)] (H-KCF[dM]FV; thioester 2-C; N-terminus assumed) |  | 74.1% |  |  | 
8 | CSCC[C@H]1NC(=O)[C@H](Cc2ccccc2)NC(=O)[C@@H](NC(=O)[C@H](C)N)CSC(=O)[C@H](C(C)C)NC(=O)[C@H](Cc2ccccc2)NC1=O [AIP M4dM, A-(C-F-dM-F-V)] (H-ACF[dM]FV; thioester 2-C; N-terminus assumed) |  | 111% | no effect on agonism |  | increase in potency (L. monocytogenes AgrC [1]; agonism, relative to native AIP): three-fold; biofilm formation of ΔagrD strain (FIG. 9A) [2]: increase biofilm formation; biofilm production compared to vehicle controls [2]: doubled
9 | CSCC[C@@H]1NC(=O)[C@H](Cc2ccccc2)NC(=O)[C@@H](NC(=O)[C@@H](N)C(C)C)CSC(=O)[C@H](C(C)C)NC(=O)[C@H](Cc2ccccc2)NC1=O [AIP A1V, V-(C-F-M-F-V)] (H-VCFMFV; thioester 2-C; N-terminus assumed) |  | 109% | maintained the full activity of the parent AIP with enhanced potency |  | 
10 | CSCC[C@H](NC(=O)[C@H](CO)NC(=O)[C@H](CO)NC(=O)[C@@H](N)CC(=O)O)C(=O)N[C@@H](CO)C(=O)N[C@@H](CCCCN)C(=O)N[C@@H](C)C(=O)N[C@H]1CSC(=O)[C@H](C(C)C)NC(=O)[C@H](Cc2ccccc2)NC(=O)[C@H](CCSC)NC(=O)[C@H](Cc2ccccc2)NC1=O [Compound 12-mer, D-S-S-M-S-K-A-(C-F-M-F-V)] (H-DSSMSKACFMFV; thioester 8-C; N-terminus assumed) | 116% |  |  |  | 
11 | CC(=O)N[C@H]1CSC(=O)[C@H](C(C)C)NC(=O)[C@H](Cc2ccccc2)NC(=O)CNC(=O)[C@H](C(C)C)NC1=O [L. grandensis tr AIP, Ac-(C-V-G-F-V), reference compound] (Ac-CVGFV; thioester 1-C) | 10.1% |  |  |  | 
